Here are results for 1 molecule from patent publication US9192688B2 (priority 2009, dated 2015).

Assay [1] deals with E. coli.
The subject of assay [2] is test organisms (Bacillus cereus, Staphylococcus aureus, Salmonella typhimurium, Escherichia coli, Saccharomyces cerevisiae, bacteriophage). The note with it: for effect on viable count of test organisms: 5 kg meat.
Assay [3] has as its system S. typhimurium.
Assay [4] deals with S. aureus.
In assay [5] the test system is model prion protein. The conditions noted are these: T5 protocol; 5 g meat, 20% moisture, 100 ug model prion protein.
Assay [6] deals with S. cerevisiae.
Assay [7] has as its system mesophilic organisms.

Where two headings read alike, the source gives them in different places.

With `OO` [gaseous hydrogen peroxide, hydrogen peroxide], the “effect on viable count” value in assay [1], in assay [3], in assay [4] and in assay [7] was “elimination” in each case. Further, the “effect on viable count of test organisms” value was “little or no effect” in assay [2] (trial T1: 30 ml 30% (v/v) H2O2 vaporised, 2.6 g/kg, 0.01 g/kg/s, 30 minutes contact, about 0.01 kPa) and “little or no effect” in assay [2] (trial T2: 60 ml 30% (v/v) H2O2 vaporised, 0.01 g/kg/s, 30 minutes contact). In assay [2] (trial T3: 90 ml 30% (v/v) H2O2, 7.9 g/kg meat, 0.01 g/kg/s, 30 minutes contact), the “effect on the organisms” value is recorded as “significant effect”. In addition, in assay [2] (trial T5: 30 ml introduced rapidly over about 5 seconds (0.5 g/kg/s), then 60 ml at 0.01 g/kg/s), the “inactivation compared with T3 on increasing the contact rate” value is “enhanced”. The “prion content after treatment versus positive control” value in assay [5] was “significantly destroyed”. Besides, in assay [6], the “inactivation of S. cerevisiae” value is “particularly striking effect”.
